Values quoted from earlier work as cited in patent publication US20170027865A1, “Dry Pharmaceutical Compositions for Topical Delivery of Oral Medications, Nasal Delivery and to Treat Ear Disorders” (CMPD LICENSING LLC, priority 2013, published 2017).

How the values were obtained:
[1] = system: Corynebacterium urealyticum; details: Gram: pos
[2] = system: Neisseria gonorrhoeae; details: Gram: neg
[3] = system: Haemophilus influenzae; details: Gram: neg
[4] = system: Pseudomonas fluorescens; details: Gram: neg
[5] = system: Vibrio cholerae; details: Gram: neg
[6] = system: Shigella flexneri; details: Gram: neg
[7] = system: Enterobacter cloacae; details: Gram: neg
[8] = system: Corynebacterium jeikeium; details: Gram: pos
[9] = system: Haemophilus ducreyi; details: Gram: neg
[10] = system: Citrobacter diversus; details: Gram: neg
[11] = system: Streptococcus pyogenes; details: Gram: pos
[12] = system: Neisseria meningitidis; details: Gram: neg
[13] = system: Proteus mirabilis; details: Gram: neg
[14] = system: Klebsiella (Calymmatobacterium) granulomatis; details: Gram: neg
[15] = system: Providencia stuartii; details: Gram: neg
[16] = system: Providencia rettgeri; details: Gram: neg
[17] = system: Legionella pneumophila; details: Legionella pneumophila; Gram: neg
[18] = system: Klebsiella pneumoniae; details: Gram: neg
[19] = system: Citrobacter freundii; details: Gram: neg
[20] = system: Pseudomonas aeruginosa; details: Gram: neg
[21] = system: Campylobacter jejuni; details: Gram: neg
[22] = system: Moraxella catarrhalis; details: Gram: neg
[23] = system: Rickettsiae; details: Rickettsiae; Gram: neg
[24] = system: Klebsiella oxytoca; details: Gram: neg
[25] = system: Yersinia pestis; details: Yersinia pestis; Gram: neg
[26] = system: Enterobacter sakazakii; details: Gram: neg
[27] = system: Methicillin Resistant Staph aureus (MRSA); details: Gram: pos
[28] = system: Acinetobacter lwoffii; details: Gram: neg
[29] = system: Shigella sonnei; details: Gram: neg
[30] = system: Acinetobacter baumannii; details: Gram: neg
[31] = system: Serratia marcescens; details: Gram: neg
[32] = system: Staphylococcus aureus (MSSA); details: Gram: pos
[33] = system: Morganella morganii; details: Gram: neg
[34] = system: Proteus vulgaris; details: Gram: neg
[35] = system: Enterobacter aerogenes; details: Gram: neg
[36] = system: Shigella boydii; details: Gram: neg
[37] = system: Acinetobacter calcoaceticus; details: Gram: neg
[38] = system: Shigella dysenteriae; details: Gram: neg
[39] = system: Clostridium perfringens; details: Clostridium perfringens; Gram: anaer
[40] = system: Francisella tularensis; details: Francisella tularensis; Gram: neg
[41] = system: Bordetella pertussis; details: Gram: neg
[42] = system: Bartonella bacilliformis; details: Gram: neg
[43] = system: Salmonella typhi; details: Gram: neg
[44] = system: Brucella species; details: Brucella species; Gram: neg
[45] = system: Escherichia coli; details: Gram: neg
[46] = system: Enterococcus faecium; details: Gram: pos
[47] = system: Bacteroides fragilis; details: Gram: anaer
[48] = system: Chlamydia pneumoniae; details: Gram: n/a
[49] = system: Staphylococcus epidermidis; details: Gram: pos
[50] = system: Haemophilus parainfluenzae; details: Gram: neg

## C/C(=C\C(=O)OCCCCCCCCC(=O)O)C[C@@H]1OC[C@H](C[C@@H]2O[C@H]2[C@@H](C)[C@H](C)O)[C@@H](O)[C@H]1O [Bactroban]
[1]
  Expected coverage: no
[2]
  Expected coverage: no
[3]
  Expected coverage: no
[4]
  Expected coverage: no
[5]
  Expected coverage: no
[6]
  Expected coverage: no
[7]
  Expected coverage: no
[8]
  Expected coverage: no
[9]
  Expected coverage: no
[10]
  Expected coverage: no
[11]
  Expected coverage: yes
[12]
  Expected coverage: no
[13]
  Expected coverage: no
[14]
  Expected coverage: no
[15]
  Expected coverage: no
[16]
  Expected coverage: no
[17]
  Expected coverage: no
[18]
  Expected coverage: no
[19]
  Expected coverage: no
[20]
  Expected coverage: no
[21]
  Expected coverage: no
[22]
  Expected coverage: no
[23]
  Expected coverage: no
[24]
  Expected coverage: no
[25]
  Expected coverage: no
[26]
  Expected coverage: no
[27]
  Expected coverage: yes
[28]
  Expected coverage: no
[29]
  Expected coverage: no
[30]
  Expected coverage: no
[31]
  Expected coverage: no
[32]
  Expected coverage: yes
[33]
  Expected coverage: no
[34]
  Expected coverage: no
[35]
  Expected coverage: no
[36]
  Expected coverage: no
[37]
  Expected coverage: no
[38]
  Expected coverage: no
[39]
  Expected coverage: no
[40]
  Expected coverage: no
[41]
  Expected coverage: no
[42]
  Expected coverage: no
[43]
  Expected coverage: no
[44]
  Expected coverage: no
[45]
  Expected coverage: no

## O=C(O)c1cn(C2CC2)c2cc(N3CCNCC3)c(F)cc2c1=O [Ciprofloxacin, ciprofloxacin]
[46]
  Expected coverage: no
[2]
  Expected coverage: yes
[3]
  Expected coverage: yes
[4]
  Expected coverage: yes
[5]
  Expected coverage: yes
[6]
  Expected coverage: yes
[8]
  Expected coverage: no
[10]
  Expected coverage: yes
[12]
  Expected coverage: yes
[13]
  Expected coverage: yes
[15]
  Expected coverage: yes
[16]
  Expected coverage: yes
[17]
  Expected coverage: yes
[18]
  Expected coverage: yes
[19]
  Expected coverage: yes
[20]
  Expected coverage: yes
[21]
  Expected coverage: yes
[22]
  Expected coverage: yes
[23]
  Expected coverage: yes
[24]
  Expected coverage: yes
[25]
  Expected coverage: yes
[47]
  Expected coverage: no
[27]
  Expected coverage: no
[29]
  Expected coverage: yes
[48]
  Expected coverage: yes
[49]
  Expected coverage: yes
[31]
  Expected coverage: yes
[33]
  Expected coverage: yes
[50]
  Expected coverage: yes
[34]
  Expected coverage: yes
[35]
  Expected coverage: yes
[36]
  Expected coverage: yes
[38]
  Expected coverage: yes
[40]
  Expected coverage: yes
[42]
  Expected coverage: yes
[43]
  Expected coverage: yes
[45]
  Expected coverage: yes
